In EP0640594A1, “Hydantoin derivative as metalloprotease inhibitor” (FUJIREBIO INC., priority 1993, dated 1995):

Molecular target: T1, NEP (Rattus norvegicus, UniProt P07861)
T1 construct: The fractions with the NEP activity were collected, and was used as the enzyme source for the test; from tissue; host or cells: kidneys of male SD rats
T1 sequence (P07861 1-750): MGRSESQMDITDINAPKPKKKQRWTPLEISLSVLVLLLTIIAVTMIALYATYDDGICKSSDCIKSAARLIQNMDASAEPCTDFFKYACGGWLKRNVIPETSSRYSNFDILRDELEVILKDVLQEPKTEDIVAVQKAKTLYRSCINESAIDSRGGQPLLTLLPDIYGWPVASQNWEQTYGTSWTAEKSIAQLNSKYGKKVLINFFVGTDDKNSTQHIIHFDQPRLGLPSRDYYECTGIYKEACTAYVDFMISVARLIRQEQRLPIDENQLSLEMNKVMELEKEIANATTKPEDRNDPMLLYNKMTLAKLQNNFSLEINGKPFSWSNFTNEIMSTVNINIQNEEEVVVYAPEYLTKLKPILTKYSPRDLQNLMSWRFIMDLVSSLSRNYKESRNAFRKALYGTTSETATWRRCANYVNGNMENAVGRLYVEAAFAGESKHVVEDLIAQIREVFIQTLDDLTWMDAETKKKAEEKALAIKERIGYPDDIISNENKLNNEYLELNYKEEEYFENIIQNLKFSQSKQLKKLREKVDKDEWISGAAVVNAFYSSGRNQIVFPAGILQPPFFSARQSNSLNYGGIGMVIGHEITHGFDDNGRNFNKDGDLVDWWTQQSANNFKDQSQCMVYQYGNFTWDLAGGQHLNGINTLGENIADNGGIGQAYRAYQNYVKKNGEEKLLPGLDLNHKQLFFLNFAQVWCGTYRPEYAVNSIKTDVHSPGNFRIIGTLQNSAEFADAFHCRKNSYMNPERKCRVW
Assay: in vitro inhibitory activity on NEP
Type: biochemical
Details: NEP from kidneys of male SD rats; 0.4 mM glutaryl-Ala-Ala-Phe-4-methoxy-β-naphthylamide, pH 7.4, 37°C, 1 hour
Experimental: NEP was prepared as follows in accordance with the process as described in Peptide, 9, 173 (1988). Kidneys of male SD rats were homogenized with 10 times by volume of a tris/HCl buffer solution (pH 7.0) containing mannitol and magnesium chloride. The homogenate was centrifuged (700 × g) to give a supernatant liquid. To the supernatant liquid was added n-octyl-β-D-glucoside in an amount to give a final concentration of 1 %, followed by stirring at 4°C for 1 hour, thereby solubilizing the enzyme. The solution was dialyzed against 5 mM HEPES/0.1% Triton (pH 7.4). The inner liquid was applied to a DE-52 column (2.5 cm i.d. × 15 cm) equilibrated with 5 mM HEPES/0.1% Triton (pH 7.4). The column was eluted with 500 ml of a NaCl solution having a linear concentration gradient of 0-300 mM. The fractions with the NEP activity were collected, and was used as the enzyme source for the test.
The inhibitory activity on NEP was measured according to the method described in Biochemistry, 20, 4942 (1981). That is, 250 µl of a 50 mM tris/HCl buffer solution (pH 7.4) containing 0.4 mM of glutaryl-Ala-Ala-Phe-4-methoxy-β-naphthylamide, 0.25 unit/ml of leucine aminopeptidase, a predetermined amount of the sample compound and NEP was prepared and the reaction was carried out at 37°C for 1 hour. The amount of 4-methoxy-β-naphthylamide produced by the NEP activity was measured to determine the inhibitory activity.

| Compound | IC50 |
| --- | --- |
| O=C(O)[C@H](Cc1ccccc1)N1CC(=O)N(C(CS)Cc2ccccc2)C1=O (stereo partly drawn) [Example 27, 1-[(1S)-1-carboxy-2-phenylethyl]-3-(1-mercapto-3-phenyl-2-propyl)hydantoin] | 260 nM |
| O=C1CN(C2CCCCC2)C(=O)N1C(CS)Cc1ccccc1 (stereo not drawn) [Example 3, 1-cyclohexyl-3-(1-mercapto-3-phenyl-2-propyl)hydantoin] | 250 nM |
| O=C(O)CN1C(=O)N(C(CS)Cc2ccccc2)C(=O)C12CCCC2 (stereo not drawn) [Example 41, 1-(carboxymethyl)-3-(1-mercapto-3-phenyl-2-propyl)hydantoin-5-spirocyclopentane] | 460 nM |
| O=C(O)CN1C(=O)N(C(CS)Cc2ccccc2)C(=O)C1C1CCCC1 (stereo not drawn) [Example 51, 1-(carboxymethyl)-5-cyclopentyl-3-(1-mercapto-3-phenyl-2-propyl)hydantoin] | 560 nM |
| O=C(O)CN1CC(=O)N(C(CS)Cc2ccccc2)C1=O (stereo not drawn) [Example 20, 1-(carboxymethyl)-3-(1-mercapto-3-phenyl-2-propyl)hydantoin] | 230 nM |
| O=C1CN(N2CCCCC2)C(=O)N1C(CS)Cc1ccccc1 (stereo not drawn) [Example 45, 3-(1-mercapto-3-phenyl-2-propyl)-1-piperidinylhydantoin] | 59 nM |
| C[C@@H](C(=O)O)N1CC(=O)N(C(CS)Cc2ccccc2)C1=O (stereo partly drawn) [Example 26, 1-[(1S)-1-carboxyethyl]-3-(1-mercapto-3-phenyl-2-propyl)hydantoin] | 170 nM |
| O=C(O)CN1C(=O)N(C(CS)Cc2ccccc2)C(=O)C12Cc1ccccc1C2 (stereo not drawn) [Example 44, 1-(carboxymethyl)-3-(1-mercapto-3-phenyl-2-propyl)hydantoin-5-spiro-2'-indane] | 99 nM |
| O=C(O)CC1C(=O)N(C(CS)Cc2ccccc2)C(=O)N1C1CCCC1 (stereo not drawn) [Example 18, 5-(carboxymethyl)-1-cyclopentyl-3-(1-mercapto-3-phenyl-2-propyl)hydantoin] | 250 nM |
| CCC(C)[C@@H](C(=O)O)N1CC(=O)N(C(CS)Cc2ccccc2)C1=O (stereo partly drawn) [Example 29, 1-[(1S)-1-carboxy-2-methylbutyl]-3-(1-mercapto-3-phenyl-2-propyl)hydantoin] | 56 nM |
| O=C(O)CCC1C(=O)N(C(CS)Cc2ccccc2)C(=O)N1C1CCCC1 (stereo not drawn) [Example 19, 5-(2-carboxyethyl)-1-cyclopentyl-3-(1-mercapto-3-phenyl-2-propyl)hydantoin] | 160 nM |
| CC(C)C[C@@H](C(=O)O)N1CC(=O)N(C(CS)Cc2ccccc2)C1=O (stereo partly drawn) [Example 28, 1-[(1S)-1-carboxy-3-methylbutyl]-3-(1-mercapto-3-phenyl-2-propyl)hydantoin] | 220 nM |
| CC(C)[C@@H](C(=O)O)N1CC(=O)N(C(CS)Cc2ccccc2)C1=O (stereo partly drawn) [Example 21, 1-[(1S)-1-carboxy-2-methylpropyl)-3-(1-mercapto-3-phenyl-2-propyl)hydantoin] | 52 nM |
| O=C1CN(N2CCOCC2)C(=O)N1C(CS)Cc1ccccc1 (stereo not drawn) [Example 46, 3-(1-mercapto-3-phenyl-2-propyl)-1-(4-morpholinyl)hydantoin] | 110 nM |
| O=C1CN(C2CCCC2)C(=O)N1C(CS)Cc1ccccc1 (stereo not drawn) [Example 1, 1-cyclopentyl-3-(1-mercapto-3-phenyl-2-propyl)hydantoin] | 450 nM |
| O=C(O)CN1C(=O)N(C(CS)Cc2ccccc2)C(=O)C1c1ccccc1 (stereo not drawn) [Example 52, 1-(carboxymethyl)-5-phenyl-3-(1-mercapto-3-phenyl-2-propyl)hydantoin] | 61 nM |

More lines, now with the values ahead:

| IC50 | Compound |
| --- | --- |
| 230 nM | O=C(O)CN1C(=O)N(C(CS)Cc2ccccc2)C(=O)C1C(c1ccccc1)c1ccccc1 (stereo not drawn) [Example 53, 1-(carboxymethyl)-5-(diphenylmethyl)-3-(1-mercapto-3-phenyl-2-propyl)hydantoin] |
| 160 nM | CC(C)CC(CS)N1C(=O)N(CC(=O)O)C2(CCCC2)C1=O (stereo not drawn) [Example 67, 1-(carboxymethyl)-3-(1-mercapto-4-methyl-2-pentyl)hydantoin-5-spirocyclopentane] |
| 6.5 nM | COc1ccc(C2C(=O)N(C(CS)Cc3ccccc3)C(=O)N2CC(=O)O)cc1 (stereo not drawn) [Example 56, 1-(carboxymethyl)-3-(1-mercapto-3-phenyl-2-propyl)-5-(4-methoxyphenyl)hydantoin] |
| 180 nM | O=C(O)CN1C(=O)N(C(CS)Cc2ccccc2)C(=O)C1C1c2ccccc2-c2ccccc21 (stereo not drawn) [Example 60, 1-(carboxymethyl)-5-(9-fluorenyl)-3-(1-mercapto-3-phenyl-2-propyl)hydantoin] |
| 400 nM | O=C(O)Cn1c(=O)n(C(CS)Cc2ccccc2)c(=O)n1C1CCCC1 (stereo not drawn) [Example 72, 1-(carboxymethyl)-2-cyclopentyl-4-(1-mercapto-3-phenyl-2-propyl)urazole] |
| 28 nM | CC(C)Oc1ccc(C2C(=O)N(C(CS)Cc3ccccc3)C(=O)N2CC(=O)O)cc1 (stereo not drawn) [Example 58, 1-(carboxymethyl)-3-(1-mercapto-3-phenyl-2-propyl)-5-[4-(2-propyloxy)phenyl]hydantoin] |
| 700 nM | CC(C)CC(CS)N1C(=O)CN(CC(=O)O)C1=O (stereo not drawn) [Example 66, 1-(carboxymethyl)-3-(1-mercapto-4-methyl-2-pentyl)-hydantoin] |
| 90 nM | O=C(O)CN1C(=O)N(C(CS)Cc2ccccc2)C(=O)C1c1ccc(O)cc1 (stereo not drawn) [Example 55, 1-(carboxymethyl)-5-(4-hydroxyphenyl)-3-(1-mercapto-3-phenyl-2-propyl)hydantoin] |

Molecular target: ACE (Homo sapiens, UniProt P12821)
Sequence (P12821 30-1306, species assumed): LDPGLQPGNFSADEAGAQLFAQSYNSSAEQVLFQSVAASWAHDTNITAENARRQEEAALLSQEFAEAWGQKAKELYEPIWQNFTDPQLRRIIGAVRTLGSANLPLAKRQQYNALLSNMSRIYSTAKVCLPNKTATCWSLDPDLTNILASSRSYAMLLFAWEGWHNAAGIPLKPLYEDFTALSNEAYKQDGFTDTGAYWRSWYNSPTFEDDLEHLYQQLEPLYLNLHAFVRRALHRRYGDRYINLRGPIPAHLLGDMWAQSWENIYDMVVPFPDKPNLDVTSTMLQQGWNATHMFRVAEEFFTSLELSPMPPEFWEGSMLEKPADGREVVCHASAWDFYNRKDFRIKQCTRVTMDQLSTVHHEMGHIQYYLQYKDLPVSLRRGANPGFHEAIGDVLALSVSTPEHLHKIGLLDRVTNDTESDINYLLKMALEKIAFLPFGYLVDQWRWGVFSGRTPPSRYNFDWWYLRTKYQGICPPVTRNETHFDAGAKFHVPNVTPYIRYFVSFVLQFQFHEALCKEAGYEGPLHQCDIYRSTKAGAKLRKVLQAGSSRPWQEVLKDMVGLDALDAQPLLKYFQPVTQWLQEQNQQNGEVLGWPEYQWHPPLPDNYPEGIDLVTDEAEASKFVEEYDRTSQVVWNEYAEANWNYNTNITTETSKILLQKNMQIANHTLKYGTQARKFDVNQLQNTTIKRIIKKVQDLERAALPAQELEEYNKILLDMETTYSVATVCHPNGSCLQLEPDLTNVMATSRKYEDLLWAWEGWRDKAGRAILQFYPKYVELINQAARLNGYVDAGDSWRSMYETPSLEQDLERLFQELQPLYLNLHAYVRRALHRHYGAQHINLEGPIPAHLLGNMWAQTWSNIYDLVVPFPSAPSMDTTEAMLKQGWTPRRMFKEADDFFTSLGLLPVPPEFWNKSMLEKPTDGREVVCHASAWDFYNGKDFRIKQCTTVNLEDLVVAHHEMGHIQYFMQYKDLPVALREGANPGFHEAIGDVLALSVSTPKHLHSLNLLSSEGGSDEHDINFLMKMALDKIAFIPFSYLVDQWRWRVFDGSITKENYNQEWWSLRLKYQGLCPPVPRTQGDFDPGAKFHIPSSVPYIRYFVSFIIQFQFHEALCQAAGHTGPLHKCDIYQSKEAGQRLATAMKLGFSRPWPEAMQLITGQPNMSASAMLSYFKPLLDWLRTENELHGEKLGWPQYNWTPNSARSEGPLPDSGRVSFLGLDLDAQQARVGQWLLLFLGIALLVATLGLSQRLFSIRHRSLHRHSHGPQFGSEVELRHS
Assay: in vitro inhibitory activity on ACE
Type: biochemical
Details: 0.016 unit/ml ACE; 2.0 mM hippuryl-L-histidyl-L-leucine, pH 8.4, 37°C, 30 minutes
Experimental: The inhibitory activity on ACE was measured according to the method described in Biochem. Pharmacolo., 20, 1637 (1971). That is, a 100 mM boric acid/sodium carbonate buffer solution (pH 8.4) containing 2.0 mM of hippuryl-L-histidyl-L-leucine, 0.016 unit/ml of ACE, 0.8 M of NaCl, and a predetermined amount of the sample compound was prepared and the reaction was carried out at 37°C for 30 minutes. The amount of hippuric acid produced by the ACE activity was measured to determine the inhibitory activity.

| Compound | IC50 |
| --- | --- |
| CC(C)C1C(=O)N(C(CS)Cc2ccccc2)C(=O)N1CC(=O)O (stereo not drawn) [Example 36, 1-(carboxymethyl)-5-(1-methylethyl)-3-(1-mercapto-3-phenyl-2-propyl)hydantoin] | 3400 nM |
| O=C(O)CN1C(=O)N(C(CS)Cc2ccccc2)C(=O)C12CCCC2 (stereo not drawn) [Example 41, 1-(carboxymethyl)-3-(1-mercapto-3-phenyl-2-propyl)hydantoin-5-spirocyclopentane] | 460 nM |
| O=C(O)CN1C(=O)N(C(CS)Cc2ccccc2)C(=O)C1C1CCCC1 (stereo not drawn) [Example 51, 1-(carboxymethyl)-5-cyclopentyl-3-(1-mercapto-3-phenyl-2-propyl)hydantoin] | 370 nM |
| O=C(O)CN1C(=O)N(C(CS)Cc2ccccc2)C(=O)C12CCC2 (stereo not drawn) [Example 50, 1-(carboxymethyl)-3-(1-mercapto-3-phenyl-2-propyl)-hydantoin-5-spirocyclobutane] | 300 nM |
| O=C(O)CN1CC(=O)N(C(CS)Cc2ccccc2)C1=O (stereo not drawn) [Example 20, 1-(carboxymethyl)-3-(1-mercapto-3-phenyl-2-propyl)hydantoin] | 5400 nM |
| O=C1CN(C2(C(=O)O)CCCCC2)C(=O)N1C(CS)Cc1ccccc1 (stereo not drawn) [Example 24, 1-(1-carboxycyclohexyl)-3-(1-mercapto-3-phenyl-2-propyl) hydantoin] | 5200 nM |
| CCC(C)C1C(=O)N(C(CS)Cc2ccccc2)C(=O)N1CC(=O)O (stereo not drawn) [Example 42, 5-(2-butyl)-1-(carboxymethyl)-3-(1-mercapto-3-phenyl-2-propyl)hydantoin] | 1600 nM |
| O=C(O)CN1C(=O)N(C(CS)Cc2ccccc2)C(=O)C12Cc1ccccc1C2 (stereo not drawn) [Example 44, 1-(carboxymethyl)-3-(1-mercapto-3-phenyl-2-propyl)hydantoin-5-spiro-2'-indane] | 680 nM |
| O=C(O)CN1C(=O)N(C(CS)Cc2ccccc2)C(=O)C12CCCCC2 (stereo not drawn) [Example 34] | 200 nM |
| CC(O)C1C(=O)N(C(CS)Cc2ccccc2)C(=O)N1CC(=O)O (stereo not drawn) [Example 43, 1-(carboxymethyl)-5-(1-hydroxyethyl)-3-(1-mercapto-3-phenyl-2-propyl)hydantoin] | 1100 nM |
| CC1(C)C(=O)N(C(CS)Cc2ccccc2)C(=O)N1CC(=O)O (stereo not drawn) [Example 40, 1-(carboxymethyl)-5,5-dimethyl-3-(1-mercapto-3-phenyl-2-propyl)hydantoin] | 2400 nM |
| O=C(O)CN1C(=O)N(C(CS)Cc2ccccc2)C(=O)C1c1ccccc1 (stereo not drawn) [Example 52, 1-(carboxymethyl)-5-phenyl-3-(1-mercapto-3-phenyl-2-propyl)hydantoin] | 450 nM |

Further lines, results first:

| IC50 | Compound |
| --- | --- |
| 510 nM | CC(C)CC(CS)N1C(=O)N(CC(=O)O)C2(CCCC2)C1=O (stereo not drawn) [Example 67, 1-(carboxymethyl)-3-(1-mercapto-4-methyl-2-pentyl)hydantoin-5-spirocyclopentane] |
| 1000 nM | CC(C)C(CS)N1C(=O)N(CC(=O)O)C2(CCCC2)C1=O (stereo not drawn) [Example 65, 1-(carboxymethyl)-3-(1-mercapto-3-methyl-2-butyl)hydantoin-5-spirocyclopentane] |
| 180 nM | CC(CS)N1C(=O)N(CC(=O)O)C2(CCCC2)C1=O (stereo not drawn) [Example 63, 1-(carboxymethyl)-3-(1-mercapto-2-propyl)hydantoin-5-spirocyclopentane] |
